Measured values: patent publication US11771709B2, “ALK protein degradation agent and anti-tumor application thereof” (ShanghaiTech University, priority 2017, dated 2023)

Assays:
[1] = system: NCI-H3122 (EML4-ALK, V1) cells; assay: Growth inhibition IC50 in lung cancer H3122 cells (Cell Titer Blue / Cell Titer Glo); details: Homo sapiens, NCI-H3122, H3122 cells, CTB (Cell Titer Blue)
SR (NPM-ALK) cells = assay: Growth inhibition IC50 in ALCL SR cells (CCK8/WST, 72 hours); format: cell-based; details: 72 h, SR cells, WST; Brigatinib-based PROTAD molecules (Table 3)
[2] = molecular target: T1, ALK protein in SR (NPM-ALK) cells (Homo sapiens, UniProt Q9UM73); assay: Western blot of ALK protein level (degradation, DC50), ALK phosphorylation and downstream signaling in SR cells; format: cell-based; details: for DC50: ALK protein degradation in SR cells
T1 construct: NPM (nucleophosmin, NPM1, P06748) fusion partner; host or cells: SR (ALCL) cells; the other entry of the earlier key: NPM1 (P06748, Nucleophosmin)

[3] = molecular target: T2, ALK protein in H3122 (EML4-ALK) cells (Homo sapiens, UniProt Q9UM73); assay: Western blot of ALK protein level (degradation, DC50), ALK phosphorylation and downstream signaling in H3122 cells; format: cell-based; details: ALK protein degradation in H3122 cells
T2 construct: EML4 (Echinoderm microtubule-associated protein-like 4, Q9HC35) fusion partner, variant 1; host or cells: NCI-H3122 lung adenocarcinoma cells; the other entry of the earlier key: EML4 (Q9HC35, Echinoderm microtubule-associated protein-like 4)
T2 sequence (Q9UM73 with tags, fused parts or gaps): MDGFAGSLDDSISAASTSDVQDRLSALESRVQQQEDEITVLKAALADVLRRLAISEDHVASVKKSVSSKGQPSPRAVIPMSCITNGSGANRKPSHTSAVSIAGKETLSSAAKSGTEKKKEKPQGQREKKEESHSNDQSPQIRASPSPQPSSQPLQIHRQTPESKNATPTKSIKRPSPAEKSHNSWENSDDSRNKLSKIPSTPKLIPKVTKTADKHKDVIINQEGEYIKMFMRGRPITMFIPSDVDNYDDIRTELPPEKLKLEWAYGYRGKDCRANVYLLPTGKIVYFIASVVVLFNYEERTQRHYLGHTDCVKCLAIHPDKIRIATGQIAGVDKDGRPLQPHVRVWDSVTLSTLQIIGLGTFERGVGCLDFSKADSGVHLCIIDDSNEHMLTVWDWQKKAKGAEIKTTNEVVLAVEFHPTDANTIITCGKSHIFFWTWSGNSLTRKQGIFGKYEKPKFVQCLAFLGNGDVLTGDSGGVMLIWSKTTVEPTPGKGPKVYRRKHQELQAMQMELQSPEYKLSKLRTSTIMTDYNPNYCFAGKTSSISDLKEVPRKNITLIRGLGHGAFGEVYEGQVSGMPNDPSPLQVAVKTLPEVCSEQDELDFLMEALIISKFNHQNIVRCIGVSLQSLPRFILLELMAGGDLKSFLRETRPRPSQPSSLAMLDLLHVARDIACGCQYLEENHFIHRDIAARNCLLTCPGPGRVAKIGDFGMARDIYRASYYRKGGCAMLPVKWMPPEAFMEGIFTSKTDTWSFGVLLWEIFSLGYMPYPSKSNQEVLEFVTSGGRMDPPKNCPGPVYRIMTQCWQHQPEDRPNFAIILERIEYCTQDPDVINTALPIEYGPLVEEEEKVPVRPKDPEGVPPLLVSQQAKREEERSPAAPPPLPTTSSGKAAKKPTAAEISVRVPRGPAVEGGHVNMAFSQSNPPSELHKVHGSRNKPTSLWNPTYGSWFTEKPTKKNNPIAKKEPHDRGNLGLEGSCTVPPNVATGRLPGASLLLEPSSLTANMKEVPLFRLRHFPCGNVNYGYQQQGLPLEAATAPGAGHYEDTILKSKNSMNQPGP

T1 sequence (Q9UM73 with tags, fused parts or gaps): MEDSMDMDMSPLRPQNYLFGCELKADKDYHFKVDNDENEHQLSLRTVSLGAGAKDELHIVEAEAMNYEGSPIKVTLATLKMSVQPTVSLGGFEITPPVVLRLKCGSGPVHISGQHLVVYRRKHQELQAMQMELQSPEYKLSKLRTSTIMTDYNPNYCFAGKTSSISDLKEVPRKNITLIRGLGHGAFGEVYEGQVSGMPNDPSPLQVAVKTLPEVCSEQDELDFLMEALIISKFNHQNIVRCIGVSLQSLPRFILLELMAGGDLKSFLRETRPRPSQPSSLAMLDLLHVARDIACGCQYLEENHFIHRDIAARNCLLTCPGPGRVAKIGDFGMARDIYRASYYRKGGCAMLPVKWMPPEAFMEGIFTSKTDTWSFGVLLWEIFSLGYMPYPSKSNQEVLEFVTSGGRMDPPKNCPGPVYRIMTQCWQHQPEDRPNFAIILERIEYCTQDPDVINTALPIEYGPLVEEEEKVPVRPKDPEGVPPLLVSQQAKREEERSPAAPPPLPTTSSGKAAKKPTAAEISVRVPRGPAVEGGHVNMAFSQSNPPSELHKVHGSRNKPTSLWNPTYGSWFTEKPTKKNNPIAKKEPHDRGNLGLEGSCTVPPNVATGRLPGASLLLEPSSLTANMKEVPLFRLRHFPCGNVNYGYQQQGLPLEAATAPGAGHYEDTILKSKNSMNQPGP

| IC50 [1] [nM] | DC50 [2] [nM] | DC50 [3] [nM] | concentration at which ALK proteins were degraded ([2]; SR cells, western blot) [nM] | Structure (SMILES) | IC50 (SR (NPM-ALK) cells) [nM] |
| --- | --- | --- | --- | --- | --- |
| 2560 |  |  |  | Cc1cc(Nc2ncc(Cl)c(Nc3ccccc3S(=O)(=O)C(C)C)n2)c(OC(C)C)cc1C1CCN(C(=O)CCCCCCCCCC(=O)N[C@H](C(=O)N2C[C@H](O)C[C@H]2C(=O)NCc2ccc(-c3scnc3C)cc2)C(C)(C)C)CC1 [SIAIS074026, (2S,4R)-1-((S)-2-(11-(4-(4-((5-chloro-4-((2-(isopropylsulfonyl)phenyl)amino)pyrimidin-2-yl)amino)-5-isopropoxy-2-methylphenyl)piperidin-1-yl)-11-oxoundecanamido)-3,3-dimethylbutanoyl)-4-hydroxy-N-(4-(4-methylthiazol-5-yl)benzyl)pyrrolidine-2-carboxamide] |  |
| 14 |  |  |  | Cc1cc(Nc2ncc(Cl)c(Nc3ccccc3S(=O)(=O)C(C)C)n2)c(OC(C)C)cc1C1CCN(C(=O)CCNc2cccc3c2C(=O)N(C2CCC(=O)NC2=O)C3=O)CC1 (stereo not shown) [SIAIS151034, 4-((3-(4-(4-((5-chloro-4-((2-(isopropylsulfonyl)phenyl)amino)pyrimidin-2-yl)amino)-5-isopropoxy-2-methylphenyl)piperidin-1-yl)-3-oxopropyl)amino)-2-(2,6-dioxopiperidin-3-yl)isoindoline-1,3-dione] |  |
| 31 |  |  |  | Cc1cc(Nc2ncc(Cl)c(Nc3ccccc3S(=O)(=O)C(C)C)n2)c(OC(C)C)cc1C1CCN(C(=O)CCCCNc2cccc3c2C(=O)N(C2CCC(=O)NC2=O)C3=O)CC1 (stereo not shown) [SIAIS151036, 4-((5-(4-(4-((5-chloro-4-((2-(isopropylsulfonyl)phenyl)amino)pyrimidin-2-yl)amino)-5-isopropoxy-2-methylphenyl)piperidin-1-yl)-5-oxopentyl)amino)-2-(2,6-dioxopiperidin-3-yl)isoindoline-1,3-dione] |  |
|  | 1 to 10 | 0.1 to 10 |  | COc1cc(N2CCC(NC(=O)CCCCCC(=O)N[C@H](C(=O)N3C[C@H](O)C[C@H]3C(=O)NCc3ccc(-c4scnc4C)cc3)C(C)(C)C)CC2)ccc1Nc1ncc(Cl)c(Nc2ccccc2P(C)(C)=O)n1 [SIAIS164146, N1-(1-(4-((5-chloro-4-((2-(dimethylphosphoryl)phenyl)amino)pyrimidin-2-yl)amino)-3-methoxyphenyl)piperidin-4-yl)-N7-((S)-1-((2S,4R)-4-hydroxy-2-((4-(4-methylthiazol-5-yl)benzyl)carbamoyl)pyrrolidin-1-yl)-3,3-dimethyl-1-oxobutan-2-yl)heptanediamide] | 3.6 ± 2.1 |
|  | 0.5 to 10 | 10 to 50 |  | COc1cc(N2CCC(N3CCN(C(=O)CCC(=O)NCCNc4cccc5c4C(=O)N(C4CCC(=O)NC4=O)C5=O)CC3)CC2)ccc1Nc1ncc(Cl)c(Nc2ccccc2P(C)(C)=O)n1 (stereo not shown) [SIAIS164152, 4-(4-(1-(4-((5-chloro-4-((2-(dimethylphosphoryl)phenyl)amino)pyrimidin-2-yl)amino)-3-methoxyphenyl)piperidin-4-yl)piperazin-1-yl)-N-(2-((2-(2,6-dioxopiperidin-3-yl)-1,3-dioxoisoindolin-4-yl)amino)ethyl)-4-oxobutanamide] | 7.9 ± 3.5 |
|  | 100 to 500 | 1 to 10 | 1 | COc1cc(N2CCC(N3CCN(C(=O)CCCc4cn(CCCC(=O)N[C@H](C(=O)N5C[C@H](O)C[C@H]5C(=O)NCc5ccc(-c6scnc6C)cc5)C(C)(C)C)nn4)CC3)CC2)ccc1Nc1ncc(Cl)c(Nc2ccccc2P(C)(C)=O)n1 [SIAIS164153, (2S,4R)-1-((S)-2-(4-(4-(4-(4-(1-(4-((5-chloro-4-((2-(dimethylphosphoryl)phenyl)amino)pyrimidin-2-yl)amino)-3-methoxyphenyl)piperidin-4-yl)piperazin-1-yl)-4-oxobutyl)-1H-1,2,3-triazol-1-yl)butanamido)-3,3-dimethylbutanoyl)-4-hydroxy-N-(4-(4-methylthiazol-5-yl)benzyl)pyrrolidine-2-carboxamide] | 55.9 ± 19.9 |
|  | 1 to 10 | 1 to 50 |  | COc1cc(N2CCN(C(=O)CNc3cccc4c3C(=O)N(C3CCC(=O)NC3=O)C4=O)CC2)ccc1Nc1ncc(Cl)c(Nc2ccccc2P(C)(C)=O)n1 (stereo not shown) [SIAIS1197055, 4-((2-(4-(4-((5-chloro-4-((2-(dimethylphosphoryl)phenyl)amino)pyrimidin-2-yl)amino)-3-methoxyphenyl)piperazin-1-yl)-2-oxoethyl)amino)-2-(2,6-dioxopiperidin-3-yl)isoindoline-1,3-dione] | ~1 |
|  | 0.1 to 0.5 | 50 to 500 |  | COc1cc(N2CCN(C(=O)CCCCCCNc3cccc4c3C(=O)N(C3CCC(=O)NC3=O)C4=O)CC2)ccc1Nc1ncc(Cl)c(Nc2ccccc2P(C)(C)=O)n1 (stereo not shown) [SIAIS1197077, 4-((7-(4-(4-((5-chloro-4-((2-(dimethylphosphoryl)phenyl)amino)pyrimidin-2-yl)amino)-3-methoxyphenyl)piperazin-1-yl)-7-oxoheptyl)amino)-2-(2,6-dioxopiperidin-3-yl)isoindoline-1,3-dione] | 7.9 ± 4.9 |
|  | 1 to 50 | 1 to 50 |  | COc1cc(N2CCN(C(=O)CCCCCCC(=O)N[C@H](C(=O)N3C[C@H](O)C[C@H]3C(=O)NCc3ccc(-c4scnc4C)cc3)C(C)(C)C)CC2)ccc1Nc1ncc(Cl)c(Nc2ccccc2P(C)(C)=O)n1 [SIAIS1197153, (2S,4R)-1-((S)-2-(8-(4-(4-((5-chloro-4-((2-(dimethylphosphoryl)phenyl)amino)pyrimidin-2-yl)amino)-3-methoxyphenyl)piperazin-1-yl)-8-oxooctanamido)-3,3-dimethylbutanoyl)-4-hydroxy-N-(4-(4-methylthiazol-5-yl)benzyl)pyrrolidine-2-carboxamide] | 4.6 ± 1.9 |
|  | 1 to 10 | 1 to 50 |  | COc1cc(N2CCN(C(=O)CCCCCCCC(=O)N[C@H](C(=O)N3C[C@H](O)C[C@H]3C(=O)NCc3ccc(-c4scnc4C)cc3)C(C)(C)C)CC2)ccc1Nc1ncc(Cl)c(Nc2ccccc2P(C)(C)=O)n1 [SIAIS1197155, (2S,4R)-1-((S)-2-(9-(4-(4-((5-chloro-4-((2-(dimethylphosphoryl)phenyl)amino)pyrimidin-2-yl)amino)-3-methoxyphenyl)piperazin-1-yl)-9-oxononanamido)-3,3-dimethylbutanoyl)-4-hydroxy-N-(4-(4-methylthiazol-5-yl)benzyl)pyrrolidine-2-carboxamide] | 3.4 ± 0.5 |
|  | 1 to 10 | 1 to 50 |  | COc1cc(N2CCN(C(=O)CCCCCCCCC(=O)N[C@H](C(=O)N3C[C@H](O)C[C@H]3C(=O)NCc3ccc(-c4scnc4C)cc3)C(C)(C)C)CC2)ccc1Nc1ncc(Cl)c(Nc2ccccc2P(C)(C)=O)n1 [SIAIS1197157, (2S,4R)-1-((S)-2-(10-(4-(4-((5-chloro-4-((2-(dimethylphosphoryl)phenyl)amino)pyrimidin-2-yl)amino)-3-methoxyphenyl)piperazin-1-yl)-10-oxodecanamido)-3,3-dimethylbutanoyl)-4-hydroxy-N-(4-(4-methylthiazol-5-yl)benzyl)pyrrolidine-2-carboxamide] | 3.1 ± 1.3 |
